Test results: US20100285963A1, “SUBSTITUTED FLUOROALKOXYPHENYLSULFONYLUREAS” (priority 2001, published 2010)

Assays:
weeds [1] = assay: Pre-emergence test (greenhouse), damage to weeds; format: in vivo; settings: for activity against weeds: soil sprayed 24 hours after sowing, rated after three weeks as % damage vs untreated control
Experimental: (§1) Solvent: 5 parts by weight of acetone
(§2) Emulsifier: 1 part by weight of alkylaryl polyglycol ether
To produce a suitable preparation of active compound, 1 part by weight of active compound is mixed with the stated amount of solvent, the stated amount of emulsifier is added and the concentrate is diluted with water to the desired concentration.
Seeds of the test plants are sown in normal soil. After 24 hours, the soil is sprayed with the preparation of active compounds such that the particular amount of active compound desired is applied per unit area. The concentration of active compound in the spray liquor is chosen such that the particular amount of active compound desired is applied in 1000 liters of water per hectare.
After three weeks, the degree of damage to the plants is rated in % damage in comparison to the development of the untreated control. The figures denote: • 0%=no effect (like untreated control) • 100%=total destruction

weeds [2] = assay: Post-emergence test (greenhouse), damage to weeds; format: in vivo; settings: for activity against weeds: test plants of 5-15 cm sprayed, rated after three weeks as % damage vs untreated control
Experimental: as §1, §2
To product a suitable preparation of active compound, 1 part by weight of active compound is mixed with the stated amount of solvent, the stated amount of emulsifier is added and the concentrate is diluted with water to the desired concentration.
Test plants of a height of 5-15 cm are sprayed with the preparation of active compound such that the particular amounts of active compound desired are applied per unit area. The concentration of the spray liquor is chosen such that the particular amounts of active compound desired are applied in 10001 of water/ha.
After three weeks, the degree of damage to the plants is rated in % damage in comparison to the development of the untreated control.
The figures denote: • 0%=no effect (like untreated control) • 100%=total destruction

[3] = 8 g of a.i./ha, after three weeks
[4] = 30 g of a.i./ha, after three weeks, Table B8
[5] = 60 g of a.i./ha, after three weeks, Table A6
[6] = 30 g of a.i./ha, after three weeks, Table B10
[7] = 250 g of a.i./ha, after three weeks
[8] = 30 g of a.i./ha, after three weeks, Table B11
[9] = 60 g of a.i./ha, after three weeks, Table A7
[10] = 30 g of a.i./ha, after three weeks, Table B12
[11] = 60 g of a.i./ha, after three weeks

COc1nc(C)nc(NC(=O)NS(=O)(=O)c2c(OCCF)cccc2C(F)(F)F)n1 [(3)]
% damage Abutilon (weeds [1]; [3]): 100% | % damage Cyperus (weeds [1]; [3]): 100% | % damage Echinochloa (weeds [1]; [3]): 100% | % damage Galium (weeds [1]; [3]): 100% | % damage Solanum (weeds [1]; [3]): 100% | % damage Stellaria (weeds [1]; [3]): 100% | % damage Veronica (weeds [1]; [3]): 100% | % damage Abutilon (weeds [2]; [4]): 100% | % damage Alopecurus (weeds [2]; [4]): 95% | % damage Amaranthus (weeds [2]; [4]): 100% | % damage Lolium (weeds [2]; [4]): 95% | % damage Matricaria (weeds [2]; [4]): 100% | % damage Viola (weeds [2]; [4]): 100% | % damage Xanthium (weeds [2]; [4]): 100%

CCc1cccc(OCCCF)c1S(=O)(=O)NC(=O)Nc1nc(C)nc(OC)n1 [Example 17]
activity against weeds (weeds [1]): very strong activity | activity against weeds (weeds [2]): very strong activity

COc1nc(NC(=O)NS(=O)(=O)c2c(C)cccc2OCCCF)nc(OC)n1 [(15)]
% damage Abutilon (weeds [1]; [5]): 95% | % damage Alopecurus (weeds [1]; [5]): 95% | % damage Amaranthus (weeds [1]; [5]): 100% | % damage Echinochloa (weeds [1]; [5]): 95% | % damage Galium (weeds [1]; [5]): 95% | % damage Sinapis (weeds [1]; [5]): 95% | % damage Abutilon (weeds [2]; [6]): 95% | % damage Alopecurus (weeds [2]; [6]): 90% | % damage Amaranthus (weeds [2]; [6]): 100% | % damage Ipomoea (weeds [2]; [6]): 100% | % damage Lolium (weeds [2]; [6]): 90% | % damage Matricaria (weeds [2]; [6]): 100% | % damage Stellaria (weeds [2]; [6]): 100%

COc1cc(OC)nc(NC(=O)NS(=O)(=O)c2c(C)cccc2OCCF)n1 [(24)]
% damage Alopecurus (weeds [1]; [7]): 100% | % damage Amaranthus (weeds [1]; [7]): 100% | % damage Avena fatua (weeds [1]; [7]): 95% | % damage Galium (weeds [1]; [7]): 100% | % damage Setaria (weeds [1]; [7]): 95% | % damage Xanthium (weeds [1]; [7]): 95% | % damage Abutilon (weeds [2]; [7]): 100% | % damage Alopecurus (weeds [2]; [7]): 100% | % damage Amaranthus (weeds [2]; [7]): 100% | % damage Avena fatua (weeds [2]; [7]): 90% | % damage Galium (weeds [2]; [7]): 90% | % damage Setaria (weeds [2]; [7]): 95% | % damage Sinapis (weeds [2]; [7]): 100%

CCc1cccc(OCCCF)c1S(=O)(=O)NC(=O)Nc1nc(Cl)cc(OC)n1 [Example 18]
activity against weeds (weeds [2]): very strong activity

COc1nc(NC(=O)NS(=O)(=O)c2c(C)cccc2OCCCF)nc(OC)n1 [Example 15]
activity against weeds (weeds [1]): very strong activity | activity against weeds (weeds [2]): very strong activity

COc1cc(Cl)nc(NC(=O)NS(=O)(=O)c2c(C)cccc2OCCCF)n1 [Example 14]
activity against weeds (weeds [1]): very strong activity | activity against weeds (weeds [2]): very strong activity

CCCc1cccc(OCCCF)c1S(=O)(=O)NC(=O)Nc1nc(OC)nc(OC)n1 [Example 8]
activity against weeds (weeds [1]): very strong activity | activity against weeds (weeds [2]): very strong activity

COc1cc(OC)nc(NC(=O)NS(=O)(=O)c2c(C)cccc2OCCCF)n1 [(12)]
% damage Abutilon (weeds [2]; [8]): 95% | % damage Amaranthus (weeds [2]; [8]): 95% | % damage Datura (weeds [2]; [8]): 95% | % damage Echinochloa (weeds [2]; [8]): 90%

COc1cc(Cl)nc(NC(=O)NS(=O)(=O)c2c(OCCF)cccc2C(F)(F)F)n1 [(20)]
% damage Abutilon (weeds [1]; [9]): 90% | % damage Alopecurus (weeds [1]; [9]): 90% | % damage Amaranthus (weeds [1]; [9]): 95% | % damage Galium (weeds [1]; [9]): 95% | % damage Setaria (weeds [1]; [9]): 100% | % damage Sinapis (weeds [1]; [9]): 95% | % damage Echinochloa (weeds [2]; [10]): 90% | % damage Ipomoea (weeds [2]; [10]): 100% | % damage Matricaria (weeds [2]; [10]): 95% | % damage Polygonum (weeds [2]; [10]): 95% | % damage Xanthium (weeds [2]; [10]): 100%

COc1nc(C)nc(NC(=O)NS(=O)(=O)c2c(C)cccc2OCCF)n1 [(1)]
% damage Alopecurus (weeds [1]; [7]): 100% | % damage Amaranthus (weeds [1]; [7]): 100% | % damage Avena fatua (weeds [1]; [7]): 100% | % damage Galium (weeds [1]; [7]): 100% | % damage Setaria (weeds [1]; [7]): 100% | % damage Xanthium (weeds [1]; [7]): 100% | % damage Abutilon (weeds [2]; [7]): 100% | % damage Alopecurus (weeds [2]; [7]): 95% | % damage Amaranthus (weeds [2]; [7]): 100% | % damage Avena fatua (weeds [2]; [7]): 95% | % damage Galium (weeds [2]; [7]): 100% | % damage Setaria (weeds [2]; [7]): 100% | % damage Sinapis (weeds [2]; [7]): 100%

CN(C)c1nc(NC(=O)NS(=O)(=O)c2c(OCCF)cccc2C(F)(F)F)nc(OCC(F)(F)F)n1 [(22)]
% damage Alopecurus (weeds [2]; [11]): 90% | % damage Amaranthus (weeds [2]; [11]): 100% | % damage Galium (weeds [2]; [11]): 95% | % damage Ipomoea (weeds [2]; [11]): 100% | % damage Setaria (weeds [2]; [11]): 95% | % damage Sinapis (weeds [2]; [11]): 95%

COc1cc(Cl)nc(NC(=O)NS(=O)(=O)c2c(OCCF)cccc2C(F)(F)F)n1 [Example 20]
activity against weeds (weeds [1]): very strong activity | activity against weeds (weeds [2]): very strong activity

COc1nc(C)nc(NC(=O)NS(=O)(=O)c2c(C)cccc2OCCF)n1 [(2)]
% damage Alopecurus (weeds [1]; [7]): 100% | % damage Amaranthus (weeds [1]; [7]): 100% | % damage Avena fatua (weeds [1]; [7]): 95% | % damage Galium (weeds [1]; [7]): 100% | % damage Setaria (weeds [1]; [7]): 100% | % damage Xanthium (weeds [1]; [7]): 95% | % damage Abutilon (weeds [2]; [7]): 100% | % damage Alopecurus (weeds [2]; [7]): 100% | % damage Amaranthus (weeds [2]; [7]): 100% | % damage Avena fatua (weeds [2]; [7]): 100% | % damage Galium (weeds [2]; [7]): 100% | % damage Setaria (weeds [2]; [7]): 100% | % damage Sinapis (weeds [2]; [7]): 100%

CN(C)c1nc(NC(=O)NS(=O)(=O)c2c(OCCF)cccc2C(F)(F)F)nc(OCC(F)(F)F)n1 [Example 22]
activity against weeds (weeds [2]): very strong activity

COc1nc(C)nc(NC(=O)NS(=O)(=O)c2c(C)cccc2OCCCF)n1 [Example 13]
activity against weeds (weeds [2]): very strong activity

COc1cc(OC)nc(NC(=O)NS(=O)(=O)c2c(C)cccc2OCCCF)n1 [Example 12]
activity against weeds (weeds [2]): very strong activity

COc1nc(C)nc(NC(=O)NS(=O)(=O)c2c(C)cccc2OCCCF)n1 [(13)]
% damage Abutilon (weeds [2]; [6]): 100% | % damage Alopecurus (weeds [2]; [6]): 90% | % damage Amaranthus (weeds [2]; [6]): 100% | % damage Ipomoea (weeds [2]; [6]): 90% | % damage Lolium (weeds [2]; [6]): 90% | % damage Matricaria (weeds [2]; [6]): 100% | % damage Stellaria (weeds [2]; [6]): 100%
